Source: patent US20250186436A1 (4E Therapeutics, Inc., priority 2021, published 2025)
Values joined by “and” are separate entries in the source; they are usually repeats but may differ in a detail not shown here. Identical values can stand only once. Like-named read-outs stand apart in the source and are kept apart here.

Assay: PK study in male Sprague-Dawley rats dosed once per day for five days, PO 10 mg/kg, 0.5% HPMC (Example 7)
Type: in vivo
Details: 0.5% HPMC suspension
Protocol: Example 7. PK study of 4ET-03-053 in male Sprague-Dawley rats dosed once per day for five days (P0; 10 mg/kg; 0.5%0HPMC aqueous suspension)
Table 21 provides plasma and brain concentrations at 24 hr after the last dose of five daily P0 doses of 4ET-03-053.

[1] = Sprague-Dawley rats, day five of daily PO 10 mg/kg, mean (n = 3)
[2] = male Sprague-Dawley rats, single PO 10 mg/kg dose, individual animals, 10 mg/kg
[3] = male Sprague-Dawley rats, single PO 10 mg/kg dose, mean (n = 3)
[4] = male, Sprague-Dawley, rat, in vivo, po, 10 mg/kg, Sprague-Dawley rats, day five of daily PO 10 mg/kg, individual animals
[5] = male, Sprague-Dawley, rat, in vivo, po, 10 mg/kg, Sprague-Dawley rats, day five of daily PO 10 mg/kg, mean (n = 3)
[6] = male, Sprague-Dawley, rat, in vivo, po, 10 mg/kg, male Sprague-Dawley rats, single PO 10 mg/kg dose, individual animals
[7] = male, Sprague-Dawley, rat, in vivo, po, 10 mg/kg, male Sprague-Dawley rats, single PO 10 mg/kg dose, mean (n = 3)

Structure (SMILES): Cc1cc(Nc2cc(N)ncn2)c(=O)n2c1C(=O)NC21CCC2(CC2)CC1 [4ET-03-053, 6″-((6-Aminopyrimidin-4-yl)amino)-8″-methyl-2″H-dispiro[cyclopropane-1,1′-cyclohexane-4′,3″-imidazo[1,5-a]pyridine]-1″,5″-dione]
- AUCinf/D [1]: 30825 kg·h/kL
- Cmax/D [1]: 2283 kg/kL
- F [1]: 59.9%
- time to peak plasma concentration (Sprague-Dawley rats, following five daily PO doses of 10 mg/kg): ≤ 2 h
- AUCinf [2]: 308.776 µg·h/mL and 251.304 µg·h/mL
- AUCinf/D [2]: 25525 kg·h/kL and 30878 kg·h/kL and 25130 kg·h/kL
- AUClast [2]: 296.855 µg·h/mL and 240.643 µg·h/mL
- Clast [2]: 1120 ng/mL and 1560 ng/mL
- Cmax [2]: 19900 ng/mL and 21800 ng/mL
- Cmax/D [2]: 2510 kg/kL and 1990 kg/kL and 2180 kg/kL
- F [2]: 49.6% and 60.0% and 48.8%
- MRTinf [2]: 7.59 h and 7.51 h
- AUCinf/D [3]: 27178 kg·h/kL
- Cmax/D [3]: 2227 kg/kL
- F [3]: 52.8%
- AUC(0-t) [4]: 234 µg·h/mL
- MRT inf [4]: 9.79 h
- Tmax [4]: 2 h
- AUC(0-inf) (male, Sprague-Dawley, rat, in vivo, po, 10 mg/kg, Sprague-Dawley rats, day five of daily PO 10 mg/kg, individual animals, read-out: AUCinf): 259 µg·h/mL
- concentration at 24 h (male, Sprague-Dawley, rat, in vivo, po, 10 mg/kg, Sprague-Dawley rats, day five of daily PO 10 mg/kg, individual animals, read-out: Clast): 2880 ng/mL
- Cmax (male, Sprague-Dawley, rat, in vivo, po, 10 mg/kg, Sprague-Dawley rats, day five of daily PO 10 mg/kg, individual animals, read-out: Cmax): 24600 ng/mL
- half-life (male, Sprague-Dawley, rat, in vivo, po, 10 mg/kg, Sprague-Dawley rats, day five of daily PO 10 mg/kg, individual animals, read-out: t1/2 (converted)): 6.54 h
- AUC(0-t) [5]: 282 µg·h/mL
- MRT inf [5]: 9.38 h
- Tmax [5]: 1.67 h
- AUC(0-inf) (male, Sprague-Dawley, rat, in vivo, po, 10 mg/kg, Sprague-Dawley rats, day five of daily PO 10 mg/kg, mean (n = 3), read-out: AUCinf): 308 µg·h/mL
- concentration at 24 h (male, Sprague-Dawley, rat, in vivo, po, 10 mg/kg, Sprague-Dawley rats, day five of daily PO 10 mg/kg, mean (n = 3), read-out: Clast): 2670 ng/mL
- Cmax (male, Sprague-Dawley, rat, in vivo, po, 10 mg/kg, Sprague-Dawley rats, day five of daily PO 10 mg/kg, mean (n = 3), read-out: Cmax): 22800 ng/mL
- half-life (male, Sprague-Dawley, rat, in vivo, po, 10 mg/kg, Sprague-Dawley rats, day five of daily PO 10 mg/kg, mean (n = 3), read-out: t1/2 (converted)): 6.82 h
- bioavailability (male, Sprague-Dawley, rat, in vivo, po, 10 mg/kg, Sprague-Dawley rats, following five daily PO doses of 10 mg/kg): 59.9%
- concentration at 24 h (male, Sprague-Dawley, rat, in vivo, po, 10 mg/kg, Sprague-Dawley rats, following five daily PO doses of 10 mg/kg, at 24 hr, read-out: last measurable concentration): 2670 ng/mL
- Cmax (male, Sprague-Dawley, rat, in vivo, po, 10 mg/kg, Sprague-Dawley rats, following five daily PO doses of 10 mg/kg, read-out: peak plasma concentration (Cmax)): 22800 ng/mL
- half-life (male, Sprague-Dawley, rat, in vivo, po, 10 mg/kg, Sprague-Dawley rats, following five daily PO doses of 10 mg/kg, read-out: terminal half-life (converted)): 6.82 h
- AUC(0-inf) (male, Sprague-Dawley, rat, in vivo, po, 10 mg/kg, Sprague-Dawley rats, following five daily PO doses of 10 mg/kg, read-out: total systemic exposure (AUCinf)): 308 µg·h/mL
- AUC(0-t) [6]: 247 µg·h/mL
- MRT inf [6]: 7.18 h
- Tmax [6]: 2 h
- AUC(0-inf) (male, Sprague-Dawley, rat, in vivo, po, 10 mg/kg, male Sprague-Dawley rats, single PO 10 mg/kg dose, individual animals, read-out: AUCinf): 255 µg·h/mL
- concentration at 24 h (male, Sprague-Dawley, rat, in vivo, po, 10 mg/kg, male Sprague-Dawley rats, single PO 10 mg/kg dose, individual animals, read-out: Clast): 1330 ng/mL
- Cmax (male, Sprague-Dawley, rat, in vivo, po, 10 mg/kg, male Sprague-Dawley rats, single PO 10 mg/kg dose, individual animals, read-out: Cmax): 25100 ng/mL
- half-life (male, Sprague-Dawley, rat, in vivo, po, 10 mg/kg, male Sprague-Dawley rats, single PO 10 mg/kg dose, individual animals, read-out: t1/2 (converted)): 5.38 h
- AUC(0-t) [7]: 262 µg·h/mL
- Tmax [7]: 1.67 h
- AUC(0-inf) (male, Sprague-Dawley, rat, in vivo, po, 10 mg/kg, male Sprague-Dawley rats, single PO 10 mg/kg dose, mean (n = 3), read-out: AUCinf): 272 µg·h/mL
- concentration at 24 h (male, Sprague-Dawley, rat, in vivo, po, 10 mg/kg, male Sprague-Dawley rats, single PO 10 mg/kg dose, mean (n = 3), read-out: Clast): 1340 ng/mL
- Cmax (male, Sprague-Dawley, rat, in vivo, po, 10 mg/kg, male Sprague-Dawley rats, single PO 10 mg/kg dose, mean (n = 3), read-out: Cmax): 22300 ng/mL
- half-life (male, Sprague-Dawley, rat, in vivo, po, 10 mg/kg, male Sprague-Dawley rats, single PO 10 mg/kg dose, mean (n = 3), read-out: t1/2 (converted)): 5.11 h
- bioavailability (male, Sprague-Dawley, rat, in vivo, po, 10 mg/kg, male Sprague-Dawley rats, single PO 10 mg/kg): 52.8%
- concentration at 24 h (male, Sprague-Dawley, rat, in vivo, po, 10 mg/kg, male Sprague-Dawley rats, single PO 10 mg/kg, at 24 hr, read-out: last measurable concentration): 1340 ng/mL
- Cmax (male, Sprague-Dawley, rat, in vivo, po, 10 mg/kg, male Sprague-Dawley rats, single PO 10 mg/kg, read-out: peak plasma concentration (Cmax)): 22300 ng/mL
- half-life (male, Sprague-Dawley, rat, in vivo, po, 10 mg/kg, male Sprague-Dawley rats, single PO 10 mg/kg, read-out: terminal half-life (t1/2) (converted)): 5.11 h
